From ChEMBL document CHEMBL1201862, “PubChem BioAssay data set” (2004)
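The compound was tested at five concentrations on cells cultured in 96-well plates, with a 48-hour exposure period. Abbreviation: GI50, concentration required for 50% inhibition of growth.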 The source made the active and inactive calls. No stated cut-off is given here; in the data, active = GI50 up to about 1.1 µM and inactive = higher.

Key:
Experiment in all cases: growth of human tumour cells (NCI), 48 h
A549 = system: A549
ACHN = system: ACHN
HCT-116 = system: HCT-116
HCT-15 = system: HCT-15
HL-60 = system: HL-60
HOP-92 = system: HOP-92
HT-29 = system: HT-29
K562 = system: K562
MCF7 = system: MCF7
Malme-3M = system: Malme-3M
PC-3 = system: PC-3
SF-268 = system: SF-268
SN12C = system: SN12C
SNB-19 = system: SNB-19
SW-620 = system: SW-620
UACC-257 = system: UACC-257
CAKI-1 = system: CAKI-1
SR = system: SR

Measured: GI50

COc1ccc(C2OC2C(=O)C23CC4CC(CC(C4)C2)C3)cc1 (stereo not drawn)
inactive: A549 45.6 µM | ACHN > 100 µM | HCT-116 58.6 µM | HL-60 15.9 µM | HOP-92 19.1 µM | HT-29 13.4 µM | K562 27.2 µM | MCF7 47.9 µM | Malme-3M > 100 µM | PC-3 31.9 µM | SF-268 54.6 µM | SN12C 36.8 µM | SNB-19 33.3 µM | SW-620 > 100 µM | UACC-257 54.6 µM
41.4 µM: HCT-15

Cc1cc(C)nc(NS(=O)(=O)c2ccc(Nc3nncc(=O)n3N)cc2)n1
14.5 µM: HCT-15
inactive: A549 34.8 µM | ACHN 33.7 µM | CAKI-1 16 µM | HCT-116 28.2 µM | HL-60 17.4 µM | HT-29 16.9 µM | K562 11.1 µM | MCF7 16.7 µM | Malme-3M 19.2 µM | PC-3 21.5 µM | SF-268 20.1 µM | SNB-19 30.6 µM | SR 16.8 µM | SW-620 16.2 µM | UACC-257 19.8 µM

O=C(COc1ccc(OCC(=O)N2C(=O)CS/C2=N\c2ccccc2)cc1)N1C(=O)CS/C1=N\c1ccccc1
inactive: A549 23.6 µM | ACHN 12.5 µM | CAKI-1 20.6 µM | HCT-116 10.6 µM | HOP-92 26.2 µM | HT-29 14.4 µM | K562 5.9 µM | MCF7 19 µM | Malme-3M 4 µM | PC-3 14.8 µM | SF-268 27.5 µM | SN12C 24.8 µM | SNB-19 31.6 µM | SW-620 47.9 µM | UACC-257 23.7 µM
28.1 µM: HCT-15

CCSc1nc(-c2cccs2)nc2ccc(I)cc12
89.9 µM: HCT-15
inactive: A549 > 100 µM | ACHN > 100 µM | CAKI-1 > 100 µM | HCT-116 > 100 µM | HL-60 > 100 µM | HT-29 > 100 µM | K562 > 100 µM | MCF7 13.1 µM | PC-3 > 100 µM | SF-268 > 100 µM | SN12C > 100 µM | SNB-19 > 100 µM | SR > 100 µM | SW-620 > 100 µM | UACC-257 > 100 µM

C#CC[C@@H]1C(=O)N(Cc2ccc(OC)cc2)[C@@H](C(C)C)C(=O)N1Cc1ccc(OC)cc1
inactive: A549 36.1 µM | ACHN 45.4 µM | CAKI-1 > 100 µM | HCT-116 28.1 µM | HL-60 3.66 µM | HOP-92 84.3 µM | HT-29 26.8 µM | K562 32.4 µM | MCF7 19.8 µM | Malme-3M 55.2 µM | PC-3 24 µM | SF-268 82.2 µM | SN12C 53 µM | SNB-19 64.4 µM | SW-620 40.5 µM | UACC-257 29.9 µM
40.5 µM: HCT-15

CC(C)(C)[Si](C)(C)OCC1OC(n2ccc(=O)[nH]c2=O)C(O[Si](C)(C)C(C)(C)C)[C@@]12O[C@H]2C(N)=O (stereo partly drawn)
5.38 µM: HCT-15
inactive: A549 5.75 µM | ACHN 6.05 µM | CAKI-1 11.6 µM | HCT-116 4.08 µM | HL-60 96.6 µM | HOP-92 > 10 µM | HT-29 3.39 µM | K562 7.38 µM | MCF7 3.97 µM | PC-3 5.61 µM | SF-268 9.2 µM | SN12C 13 µM | SNB-19 10.9 µM | SW-620 6.01 µM | UACC-257 26.2 µM

COc1ccc2c(c1O)-c1c(OC)c(OC)cc3c1[C@H](C2)[N+](C)(C)CC3
> 100 µM: HCT-15
active: K562 0.0409 µM
inactive: A549 > 100 µM | ACHN > 100 µM | CAKI-1 > 100 µM | HCT-116 > 100 µM | HL-60 > 100 µM | HOP-92 13.2 µM | HT-29 > 100 µM | MCF7 > 100 µM | Malme-3M > 100 µM | PC-3 > 100 µM | SF-268 > 100 µM | SN12C > 100 µM | SNB-19 > 100 µM | SW-620 > 100 µM | UACC-257 > 100 µM

COc1ccc(OC)c(/N=C/c2cc(OC)c(OC)c(OC)c2)c1
inactive: A549 > 100 µM | ACHN > 94.4 µM | CAKI-1 80.5 µM | HCT-116 > 100 µM | HL-60 48.9 µM | HT-29 > 100 µM | K562 > 68.1 µM | MCF7 62.4 µM | Malme-3M > 100 µM | PC-3 > 100 µM | SF-268 > 100 µM | SN12C > 100 µM | SNB-19 > 100 µM | SR 32.5 µM | SW-620 > 91.2 µM | UACC-257 > 100 µM
> 92.7 µM: HCT-15

CN(C)CCCN1C(=S)N(CCCN(C)C)c2c3ccccc3nc3c([N+](=O)[O-])ccc1c23
inactive: A549 5.41 µM | ACHN 4.06 µM | CAKI-1 5.96 µM | HCT-116 3.71 µM | HOP-92 5.33 µM | HT-29 2.94 µM | K562 4.3 µM | MCF7 5.47 µM | Malme-3M 1.75 µM | PC-3 5.83 µM | SF-268 4.21 µM | SN12C 4.15 µM | SNB-19 8.67 µM | SW-620 3.05 µM | UACC-257 6.01 µM
5.09 µM: HCT-15

COC(=O)CC1C2(C)C3=C(C)C(c4ccoc4)CC3OC2C2OC(=O)C3(C)C=CC(=O)C1(C)C23 (stereo not drawn)
0.67 µM: HCT-15
active: CAKI-1 0.841 µM | HCT-116 0.889 µM | HL-60 0.372 µM | HT-29 0.839 µM | K562 0.474 µM | MCF7 0.578 µM | Malme-3M 1.02 µM | SN12C 0.859 µM
inactive: A549 2.83 µM | ACHN 1.2 µM | HOP-92 1.82 µM | PC-3 1.18 µM | SF-268 2.07 µM | SNB-19 2.25 µM | SW-620 1.33 µM | UACC-257 1.95 µM

CN(C)c1ccc(NN=C2SC(=N\c3ccccc3)/C(=N/c3ccccc3)S2)cc1
9.31 µM: HCT-15
inactive: A549 66.2 µM | ACHN > 100 µM | CAKI-1 76.4 µM | HCT-116 14.9 µM | HL-60 2.97 µM | HOP-92 22.8 µM | HT-29 15.5 µM | Malme-3M 2.38 µM | PC-3 > 100 µM | SF-268 > 100 µM | SN12C 43.4 µM | SNB-19 > 100 µM | SW-620 53 µM | UACC-257 8.2 µM

CC1=CC(=O)/C(=C/NC(N)=S)C(=O)O1
inactive: A549 > 100 µM | ACHN > 100 µM | CAKI-1 > 100 µM | HCT-116 > 100 µM | HL-60 1.72 µM | HOP-92 15.3 µM | MCF7 > 100 µM | PC-3 > 100 µM | SF-268 > 100 µM | SN12C > 100 µM | SNB-19 97.1 µM | SW-620 > 100 µM | UACC-257 > 100 µM
98.4 µM: HCT-15
